As usually defined, the Ki is a dissociation constant, usually derived from enzyme kinetics or from competition with a known ligand. The IC50 is the midpoint of a concentration-inhibition curve.

Where “and” joins values, the source holds several entries; their conditions need not be identical. Identical values can stand only once. Like-named read-outs stand apart in the source and are kept apart here.

The results in this text go back to article PMC9250534, “Synthesis and direct assay of large macrocycle diversities by combinatorial late-stage modification at picomole scale” (Nature Communications, 2022).

In one assay the target is T1, thrombin (Homo sapiens, UniProt P00734).
T1 construct: consists of two polypeptide chains of 36 (light chain) and 259 amino acid
The assay is described as follows: Determination of Kis of purified thrombin inhibitors (IC50, Cheng-Prusoff). It is filed as biochemical. The note with it: for % thrombin activity: replicates 1-3. As for the experimental part:
Purified thrombin inhibitors (10 mM in DMSO) were diluted to 80 μM in 125 μL of Tris buffer (100 mM Tris-Cl, 150 mM NaCl, 10 mM MgCl2, 1 mM CaCl2) containing 0.1% w/v BSA, 0.01% v/v Triton-X100 and […]. The macrocycles were diluted two-fold in Tris buffer containing 0.1% w/v BSA, 0.01% v/v Triton-X100 and 1% DMSO in buffer. The thrombin activity was measured in 96-well plates (Greiner, 655101) and the residual activity calculated as described above in the assay used to measure activities of HPLC-separated fractions of screening hits.
Supplementary Figure 7. Thrombin inhibitors M1 to M5. a, Chemical structures and analytical HPLC chromatograms obtained using a 0-100% MeCN/H2O gradient over 15 minutes. b, For all macrocycles, an 18 -point, two-fold serial dilution was performed in 50 µL volumes. Thrombin was added (50 µL, 2 nM final conc.), followed 10 minutes later by fluorogenic substrate Z -Gly-Gly-Arg-AMC (50 µL, 50 µM final conc.). The increase in fluorescence was measured over 30 minutes.
Residual thrombin activity was determined by dividing the slope of fluorescenc e intensity over time for each well by the slope of control wells without macrocycle. Mean values and SDs are indicated for three independent thrombin inhibition measurements.
(1 picture or pasted object on this page, not shown here)

A further assay addresses MDM2 (Homo sapiens, UniProt Q00987). In words: MDM2 binding screen of Libraries 3 and 4: displacement of fluorescent probe F-M8 at 750 nM macrocycle. The note with it: Panel b, Library 3: 63 scaffolds combinatorially acylated with 15 carboxylic acids at 30 picomole scale; displacement of fluorescent peptide probe; macrocycle 750 nM. The method, boiled down: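 Cyclic peptide scaffolds were acylated in DMSO with carboxylic acids (20 equiv.), HBTU and DABCO for 6 h at room temperature. Reactions were quenched overnight in 100 mM Tris-Cl pH 7.4, 0.01% Tween20. The fluorescein conjugate was also competed with nutlin-3a.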

[1] abbreviates: thrombin, average of 3 replicates, read-out: IC50 (nM) Average.
Where [2] appears, read: thrombin, replicate 1, Cheng-Prusoff, read-out: Ki (nM) Replicate 1.
Setting [3] is: thrombin, replicate 1, read-out: IC50 (nM) Replicate 1.
The mark [4] stands for this setting: thrombin, replicate 2, Cheng-Prusoff, read-out: Ki (nM) Replicate 2.
Setting [5] is: thrombin, replicate 2, read-out: IC50 (nM) Replicate 2.
Where [6] appears, read: thrombin, replicate 3, Cheng-Prusoff, read-out: Ki (nM) Replicate 3.
The mark [7] stands for this setting: thrombin, replicate 3, read-out: IC50 (nM) Replicate 3.

Chain of MDM2 (Q00987 whole entry): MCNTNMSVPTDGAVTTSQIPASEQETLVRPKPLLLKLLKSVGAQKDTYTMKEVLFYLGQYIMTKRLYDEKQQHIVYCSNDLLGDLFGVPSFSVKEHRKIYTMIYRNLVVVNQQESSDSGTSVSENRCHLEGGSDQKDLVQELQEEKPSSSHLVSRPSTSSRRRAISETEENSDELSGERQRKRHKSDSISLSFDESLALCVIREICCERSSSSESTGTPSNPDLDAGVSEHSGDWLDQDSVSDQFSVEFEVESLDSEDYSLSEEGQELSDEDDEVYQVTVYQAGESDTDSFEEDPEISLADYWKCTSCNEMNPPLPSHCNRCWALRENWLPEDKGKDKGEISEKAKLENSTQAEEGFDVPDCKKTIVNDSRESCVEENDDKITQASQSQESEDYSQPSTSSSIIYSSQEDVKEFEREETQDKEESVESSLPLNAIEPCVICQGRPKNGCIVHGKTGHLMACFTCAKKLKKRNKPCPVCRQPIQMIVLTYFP

For `NC(=O)c1ccc(Cl)s1` [5-chlorothiophene-2-carboxamide, reference compound], at thrombin (read-out: Ki thrombin), the Ki was determined as 380000 nM.
Regarding `CC(C)[C@H]1NC(=O)CCSSCCNC(=O)[C@H](CNC(=O)c2ccc(Cl)s2)NC(=O)c2cccc(c2)CNC1=O` [M1], the “% thrombin activity” value on thrombin (Log [Macrocycle] M -8.8) was 98.0% and 96.9% and 96.6%; at thrombin (Log [Macrocycle] M -9.1), 99.2% and 98.3% and 98.9%; at thrombin (Log [Macrocycle] M -9.4) it was 99.9% and 99.1% and 103.5%; on thrombin (Log [Macrocycle] M -9.7) it was 100.7% and 100.1% and 99.6%; on thrombin (Log[Macrocycle] M -4.6) it was -0.0543% and 1.1% and -0.4%; at thrombin (Log[Macrocycle] M -4.9), 0.156% and 0.7% and 0.8%. Further, the “% thrombin activity” value is 0.8% (2×) and 1.8% at thrombin (Log[Macrocycle] M -5.2); 1.9% (2×) and 2.1% on thrombin (Log[Macrocycle] M -5.5); 3.9% and 4.1% and 4.6% on thrombin (Log[Macrocycle] M -5.8); 7.3% and 6.9% and 7.7% on thrombin (Log[Macrocycle] M -6.1); 13.7% and 13.0% and 13.6% on thrombin (Log[Macrocycle] M -6.4); 22.7% and 21.8% and 22.6% at thrombin (Log[Macrocycle] M -6.7). The “% thrombin activity” value on thrombin (Log[Macrocycle] M -7.0) is 35.5% and 35.6% and 37.1%; at thrombin (Log[Macrocycle] M -7.3) it was 54.7% and 53.1% and 53.5%; at thrombin (Log[Macrocycle] M -7.6), 68.7% and 65.3% and 67.8%; on thrombin (Log[Macrocycle] M -7.9), 81.7% and 81.8% and 83.6%; at thrombin (Log[Macrocycle] M -8.2), 91.6% and 89.3% and 88.1%; on thrombin (Log[Macrocycle] M -8.5), 94.7% and 92.6% and 94.4%. Besides, the IC50 on thrombin (setting [1]) was 58 nM; at thrombin (setting [3]), 59 nM; on thrombin (setting [5]), 56 nM; at thrombin (setting [7]) it was 58 nM. The inhibition constant (Ki) was found to be 45 nM at thrombin (setting [2]), 43 nM on thrombin (setting [4]) and 45 nM on thrombin (setting [6]).
Consider `CC(C)[C@@H]1NC(=O)CCSSCCNC(=O)[C@H](CNC(=O)c2ccc(Cl)s2)NC(=O)c2cccc(c2)CNC1=O` [M3], for which the “% thrombin activity” value on thrombin (Log [Macrocycle] M -8.8) was 98.3% and 97.3% and 97.1%; on thrombin (Log [Macrocycle] M -9.1), 98.8% and 98.0% and 98.2%; at thrombin (Log [Macrocycle] M -9.4), 99.9% and 97.2% and 99.1%; at thrombin (Log [Macrocycle] M -9.7), 93.6% and 99.4% (2×); on thrombin (Log[Macrocycle] M -4.6), -0.0344% and 0.5% and 0.739%; on thrombin (Log[Macrocycle] M -4.9) it was 0.656% and 1.5% and 1.0%. Further, the “% thrombin activity” value on thrombin (Log[Macrocycle] M -5.2) was 2.2% and 5.0% and 2.4%; on thrombin (Log[Macrocycle] M -5.5), 4.8% and 4.9% and 5.3%; on thrombin (Log[Macrocycle] M -5.8), 9.4% and 9.7% (2×); at thrombin (Log[Macrocycle] M -6.1), 17.5% and 15.4% and 16.3%; at thrombin (Log[Macrocycle] M -6.4) it was 29.4% and 28.1% and 27.8%; on thrombin (Log[Macrocycle] M -6.7), 45.2% and 42.3% and 41.8%. The “% thrombin activity” value on thrombin (Log[Macrocycle] M -7.0) was 60.5% and 58.8% and 57.9%; at thrombin (Log[Macrocycle] M -7.3), 75.1% and 75.3% and 74.4%; on thrombin (Log[Macrocycle] M -7.6) it was 85.8% and 81.9% and 83.6%; at thrombin (Log[Macrocycle] M -7.9), 92.4% and 87.2% and 91.4%; on thrombin (Log[Macrocycle] M -8.2), 97.7% and 93.3% and 94.6%; on thrombin (Log[Macrocycle] M -8.5), 97.5% and 94.4% and 96.1%. In addition, the half-inhibitory concentration (IC50) is 160 nM on thrombin (setting [1]), 170 nM on thrombin (setting [3]), 160 nM at thrombin (setting [5]) and 150 nM on thrombin (setting [7]). The Ki on thrombin (setting [2]) is 134 nM; at thrombin (setting [4]), 121 nM; on thrombin (setting [6]) it was 119 nM.
Regarding `CC(C)C1NC(=O)CCSCSCCNC(=O)C(CNC(=O)c2ccc(Cl)s2)NC(=O)c2cccc(c2)CNC1=O` (stereo not shown) [M4], the “% thrombin activity” value at thrombin (Log [Macrocycle] M -4.5) is 0.233% and 0.231% and 2.7%; on thrombin (Log [Macrocycle] M -4.8) it was 1.1% and 1.5% and 2.1%; at thrombin (Log [Macrocycle] M -5.1), 2.6% and 3.2% and -2.3%; on thrombin (Log [Macrocycle] M -5.4), 3.6% and 5.7% and 3.8%; on thrombin (Log [Macrocycle] M -5.7), 8.1% and 9.4% and 6.2%; on thrombin (Log [Macrocycle] M -6.0), 12.9% and 16.1% and 11.7%. Besides, the “% thrombin activity” value at thrombin (Log [Macrocycle] M -6.3) is 22.1% and 27.3% and 19.3%; on thrombin (Log [Macrocycle] M -6.6) it was 34.1% and 41.1% and 30.9%; on thrombin (Log [Macrocycle] M -6.9), 55.7% and 58.5% and 45.5%; at thrombin (Log [Macrocycle] M -7.2), 67.0% and 71.8% and 59.8%; on thrombin (Log [Macrocycle] M -7.5), 78.0% and 82.2% and 70.6%; on thrombin (Log [Macrocycle] M -7.8) it was 96.6% and 99.4% and 81.6%. Further, the “% thrombin activity” value is 97.9% and 103.9% and 87.1% at thrombin (Log [Macrocycle] M -8.1); 104.8% and 107.0% and 92.8% on thrombin (Log [Macrocycle] M -8.4); 103.7% and 107.0% and 93.5% on thrombin (Log [Macrocycle] M -8.7); 106.1% and 107.4% and 94.0% at thrombin (Log [Macrocycle] M -9.0); 106.8% and 100.7% and 99.2% at thrombin (Log [Macrocycle] M -9.3); 107.9% and 105.2% and 99.6% at thrombin (Log [Macrocycle] M -9.6). In addition, the half-maximal inhibitory concentration (IC50) on thrombin (setting [1]) is 108 nM; on thrombin (setting [3]) it was 119 nM; at thrombin (setting [5]), 106 nM; on thrombin (setting [7]), 99 nM. Further, the Ki at thrombin (thrombin, replicate 1, read-out: Ki (nM) Replicate 1) is 92 nM; at thrombin (thrombin, replicate 2, read-out: Ki (nM) Replicate 2) it was 82 nM; at thrombin (thrombin, replicate 3, read-out: Ki (nM) Replicate 3) it was 76 nM.
Turning to `Cn1cc(C[C@@H]2NC(=O)CN(CCNC(=O)CCS(=O)(=O)c3ccccc3)C(=O)[C@H]3CCCN(C3)C(=O)CCSSCCNC2=O)c2ccccc21` [X-Nip-N-Aeg-Me-Trp + Acid 114], at MDM2, the “fraction of fluorescent probe displaced” value was 0.00133.
The same measure, in the same setting: the same measure for `CN1C(=O)CN(CCNC(=O)c2ccc(Cl)s2)C(=O)[C@H]2CCCN(C2)C(=O)CCSSCCNC(=O)[C@@H]1Cc1c[nH]c2ccccc12` [X-Nip-N-Aeg-NMe-Trp + Acid 14]: 0.00133.
Turning to `CN1C(=O)CN(CCNC(=O)/C=C/c2ccc(Cl)cc2)C(=O)[C@H]2CCCN(C2)C(=O)CCSSCCNC(=O)[C@@H]1Cc1c[nH]c2ccccc12` [X-Nip-N-Aeg-NMe-Trp + Acid 108], on MDM2, the “fraction of fluorescent probe displaced” value stood at 0.028.
Still for that read-out and setting: the same measure for `CN1C(=O)CN(CCNC(=O)c2cccc(Oc3ccccc3)c2)C(=O)[C@H]2CCCN(C2)C(=O)CCSSCCNC(=O)[C@@H]1Cc1c[nH]c2ccccc12` [X-Nip-N-Aeg-NMe-Trp + Acid 111]: -0.012; for `CN1C(=O)CN(CCNC(=O)CCS(=O)(=O)c2ccccc2)C(=O)[C@H]2CCCN(C2)C(=O)CCSSCCNC(=O)[C@@H]1Cc1c[nH]c2ccccc12` [X-Nip-N-Aeg-NMe-Trp + Acid 114]: -0.00533; for `O=C1CN(CCNC(=O)c2ccc(Cl)s2)C(=O)[C@H]2CCCN(C2)C(=O)CCSSCCNC(=O)[C@H](Cc2c[nH]c3ccccc23)N1` [X-Nip-N-Aeg-Trp + Acid 14]: -0.00533.
The same measure, in the same setting: then `O=C1CN(CCNC(=O)c2cccc(Oc3ccccc3)c2)C(=O)[C@H]2CCCN(C2)C(=O)CCSSCCNC(=O)[C@H](Cc2c[nH]c3ccccc23)N1` [X-Nip-N-Aeg-Trp + Acid 111], with 0.015; and `O=C(CCS(=O)(=O)c1ccccc1)NCCN1CC(=O)N[C@@H](Cc2c[nH]c3ccccc23)C(=O)NCCSSCCC(=O)N2CCC[C@@H](C2)C1=O` [X-Nip-N-Aeg-Trp + Acid 114], with 0.035; and `O=C1CN(CCNC(=O)C2COc3ccccc3O2)C(=O)[C@H]2CCCN(C2)C(=O)CCSSCCNC(=O)[C@H](Cc2c[nH]c3ccccc23)N1` (stereo partly shown) [X-Nip-N-Aeg-Trp + Acid 115], with 0.021.
